These results are taken from the supplement of paper PMC10307832.

Compound in assay [1]: COc1cc2nc(N3CCCN(C)CC3)nc(NC3CCN(Cc4ccccc4)CC3)c2cc1OC + CC1(C)CCC(c2ccc(Cl)cc2)=C(CN2CCN(c3ccc(C(=O)NS(=O)(=O)c4ccc(N[C@H](CCN5CCOCC5)CSc5ccccc5)c(S(=O)(=O)C(F)(F)F)c4)cc3)CC2)C1 [Navitoclax] (partner 0.5 µM)
Put plainly: relative viability (nuclei count vs DMSO), 5 days (fraction); higher = more cells survive. In outline: (§1)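 Lung cancer cell lines, seeded in 1536-well plates, were treated the following day by pin tool with a single drug or with five library-drug doses (not always all listed) in √10 steps on top of a fixed anchor-drug dose. Cells were fixed and nuclei stained in one step after 5 days, and nuclei were counted. Relative viability is the nuclei count for treated wells divided by that for vehicle wells, reported as medians of duplicate plates.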

Compound in assay [2]: Cc1cc([C@@H](C)Nc2ccccc2C(=O)O)c2nc(N3CCOCC3)cc(=O)n2c1 [AZD6482] + COc1cc2c(Oc3ccc(NC(=O)C4(C(=O)Nc5ccc(F)cc5)CC4)cc3F)ccnc2cc1OCCCN1CCOCC1 [Foretinib] (partner 0.25 µM)
The description is as above. The method in brief: as §1

Turning to NCI-H727, the relative viability in assay [1] (first compound 0.2 µM) worked out at 0.495; in assay [1] (first compound 0.6325 µM), 0.517; in assay [1] (first compound 2 µM) it was 0.381; in assay [1] (first compound 6.325 µM) it was 0.225; in assay [2] (first compound 0.08 µM) it was 0.828; in assay [2] (first compound 0.253 µM), 0.862. Besides, the results for the relative viability in assay [2] (first compound 0.8 µM), in assay [2] (first compound 2.53 µM) and in assay [2] (first compound 8 µM) were 1.03, 0.786 and 0.797, respectively.

NCI-H2087: the relative viability in assay [1] (first compound 0.2 µM) was 1.06; in assay [1] (first compound 0.6325 µM) it was 0.933; in assay [1] (first compound 2 µM), 1.28; in assay [1] (first compound 6.325 µM) it was 0.854; in assay [2] (first compound 0.08 µM), 1.07; in assay [2] (first compound 0.253 µM), 0.972. In addition, the relative viability amounted to 1.12 in assay [2] (first compound 0.8 µM) and 1.08 in assay [2] (first compound 8 µM).

In the case of BEN, the relative viability in assay [1] (first compound 0.2 µM) is 0.0596; in assay [1] (first compound 0.6325 µM), 0.0723; in assay [1] (first compound 2 µM), 0.0708; in assay [1] (first compound 6.325 µM) it was 0.0777; in assay [2] (first compound 0.08 µM), 0.675; in assay [2] (first compound 0.253 µM), 0.62. Moreover, the relative viability in assay [2] (first compound 0.8 µM) amounted to 0.701; in assay [2] (first compound 2.53 µM), 0.558; in assay [2] (first compound 8 µM), 0.739.

For LCLC-103H, the relative viability in assay [2] (first compound 0.08 µM) is 0.603; in assay [2] (first compound 0.253 µM) it was 0.55; in assay [2] (first compound 0.8 µM), 0.56; in assay [2] (first compound 2.53 µM) it was 0.379; in assay [2] (first compound 8 µM) it was 0.33.

On to EKVX, for which the relative viability was determined as 0.826 in assay [1] (first compound 0.2 µM); 0.926 in assay [1] (first compound 0.6325 µM); 1.04 in assay [1] (first compound 2 µM); 0.881 in assay [1] (first compound 6.325 µM); 0.746 in assay [2] (first compound 0.08 µM); 0.654 in assay [2] (first compound 0.253 µM). Also, the relative viability in assay [2] (first compound 0.8 µM) was 0.921; in assay [2] (first compound 2.53 µM), 0.542; in assay [2] (first compound 8 µM) it was 0.614.

Consider LXF-289, for which the relative viability in assay [1] (first compound 0.2 µM) is 0.894; in assay [1] (first compound 0.6325 µM), 0.938; in assay [1] (first compound 2 µM), 1.01; in assay [1] (first compound 6.325 µM) it was 0.905; in assay [2] (first compound 0.08 µM), 0.912; in assay [2] (first compound 0.253 µM), 0.916. The relative viability in assay [2] (first compound 0.8 µM) came to 0.977; in assay [2] (first compound 2.53 µM), 0.938; in assay [2] (first compound 8 µM), 0.831.

Take ABC-1: the relative viability worked out at 0.868 in assay [2] (first compound 0.08 µM); 1.21 in assay [2] (first compound 0.253 µM); 1.03 in assay [2] (first compound 0.8 µM); 0.86 in assay [2] (first compound 2.53 µM); 0.719 in assay [2] (first compound 8 µM).

NCI-H650: the relative viability was 1.02 in assay [2] (first compound 0.08 µM), 0.978 in assay [2] (first compound 0.8 µM), 0.651 in assay [2] (first compound 2.53 µM) and 0.704 in assay [2] (first compound 8 µM).

For NCI-H1650, the relative viability is 1.25 in assay [1] (first compound 0.2 µM); 1.07 in assay [1] (first compound 0.6325 µM); 1.48 in assay [1] (first compound 2 µM); 1.07 in assay [1] (first compound 6.325 µM); 0.902 in assay [2] (first compound 0.08 µM); 0.937 in assay [2] (first compound 0.253 µM). In addition, the values for the relative viability in assay [2] (first compound 0.8 µM), in assay [2] (first compound 2.53 µM) and in assay [2] (first compound 8 µM) were 0.933, 0.738 and 0.684, respectively.

With NCI-H2085, the relative viability in assay [1] (first compound 0.2 µM) worked out at 1.03; in assay [1] (first compound 0.6325 µM), 1.12; in assay [1] (first compound 2 µM), 1.27; in assay [1] (first compound 6.325 µM) it was 0.981; in assay [2] (first compound 0.08 µM), 0.62; in assay [2] (first compound 0.253 µM) it was 0.637. For the same cell line, the relative viability in assay [2] (first compound 0.8 µM) amounted to 0.338; in assay [2] (first compound 2.53 µM), 0.308; in assay [2] (first compound 8 µM), 0.29.

On to NCI-H1793, for which the relative viability in assay [1] (first compound 0.2 µM) was 0.49; in assay [1] (first compound 0.6325 µM), 0.489; in assay [1] (first compound 2 µM) it was 0.492; in assay [1] (first compound 6.325 µM) it was 0.457; in assay [2] (first compound 0.08 µM) it was 0.575; in assay [2] (first compound 0.253 µM), 0.431. Moreover, the figures for the relative viability in assay [2] (first compound 0.8 µM), in assay [2] (first compound 2.53 µM) and in assay [2] (first compound 8 µM) were 0.507, 0.3 and 0.322, respectively.

With LC-2-ad, the relative viability was 0.363 in assay [1] (first compound 0.2 µM); 0.447 in assay [1] (first compound 0.6325 µM); 0.444 in assay [1] (first compound 2 µM); 0.397 in assay [1] (first compound 6.325 µM); 0.902 in assay [2] (first compound 0.08 µM); 0.939 in assay [2] (first compound 0.253 µM). The relative viability in assay [2] (first compound 0.8 µM) came out at 0.878; in assay [2] (first compound 2.53 µM), 0.714; in assay [2] (first compound 8 µM), 0.787.

COR-L 105: the relative viability worked out at 0.925 in assay [1] (first compound 0.2 µM); 0.749 in assay [1] (first compound 0.6325 µM); 0.938 in assay [1] (first compound 2 µM); 0.486 in assay [1] (first compound 6.325 µM); 1.08 in assay [2] (first compound 0.08 µM); 0.711 in assay [2] (first compound 0.253 µM). The relative viability in assay [2] (first compound 0.8 µM) is 1.03; in assay [2] (first compound 2.53 µM), 0.744; in assay [2] (first compound 8 µM), 0.932.

With NCI-H1355, the relative viability in assay [1] (first compound 0.2 µM) amounted to 0.918; in assay [1] (first compound 0.6325 µM), 0.947; in assay [1] (first compound 2 µM), 1.01; in assay [1] (first compound 6.325 µM), 0.921; in assay [2] (first compound 0.08 µM) it was 0.769; in assay [2] (first compound 0.253 µM) it was 0.812. In addition, the relative viability amounted to 0.962 in assay [2] (first compound 0.8 µM), 0.713 in assay [2] (first compound 2.53 µM) and 0.641 in assay [2] (first compound 8 µM).

As for H3255, the relative viability was 0.517 in assay [1] (first compound 0.2 µM); 0.59 in assay [1] (first compound 0.6325 µM); 0.669 in assay [1] (first compound 2 µM); 0.544 in assay [1] (first compound 6.325 µM); 1.03 in assay [2] (first compound 0.08 µM); 0.662 in assay [2] (first compound 0.253 µM). Also, the relative viability in assay [2] (first compound 0.8 µM) was 0.898; in assay [2] (first compound 2.53 µM), 0.498; in assay [2] (first compound 8 µM), 0.627.
